# Test results published in ChEMBL document CHEMBL1201862, “PubChem BioAssay data set” (2004).
#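 96-well plates; 48 h exposure; 5 concentrations. Endpoints by linear interpolation between flanking doses. Not reached: highest tested concentration assigned. GI50 marks 50% less growth.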 Active and inactive are the calls of the source. No stated cut-off is given here; in the data, active = GI50 up to about 1.1 µM and inactive = higher.
# Key:
# Assay in all cases: DTP human tumour cell line panel, 48 h
# 786-0 = tested on: 786-0
# MDA-MB-435 = tested on: MDA-MB-435
# U-251 = tested on: U-251
# RPMI-8226 = tested on: RPMI-8226
# Hs-578T = tested on: Hs-578T
# HOP-92 = tested on: HOP-92
# DU-145 = tested on: DU-145
# NCI-H23 = tested on: NCI-H23
# HOP-62 = tested on: HOP-62
# SNB-75 = tested on: SNB-75
# LOX IMVI = tested on: LOX IMVI
# SNB-19 = tested on: SNB-19
# HT-29 = tested on: HT-29
# M14 = tested on: M14
# NCI-H226 = tested on: NCI-H226
# A549 = tested on: A549
# MDA-N = tested on: MDA-N
# Malme-3M = tested on: Malme-3M
# NCI-H522 = tested on: NCI-H522
Structure (SMILES),GI50 (786-0),GI50 (MDA-MB-435),GI50 (U-251),GI50 (RPMI-8226),GI50 (Hs-578T),GI50 (HOP-92),GI50 (DU-145),GI50 (NCI-H23),GI50 (HOP-62),GI50 (SNB-75),GI50 (LOX IMVI),GI50 (SNB-19),GI50 (HT-29),GI50 (M14),GI50 (NCI-H226),GI50 (A549),GI50 (MDA-N),GI50 (Malme-3M),GI50 (NCI-H522)
CC#CC(O)(C(=O)OC1CC2CCC(C1)N2C)C1CCCC1 (stereo not drawn),> 100 µM (inactive),> 100 µM (inactive),> 100 µM (inactive),> 100 µM (inactive),> 100 µM (inactive),> 100 µM (inactive),> 100 µM (inactive),> 100 µM (inactive),> 100 µM (inactive),> 100 µM (inactive),> 100 µM (inactive),> 100 µM (inactive),> 100 µM (inactive),> 100 µM (inactive),> 100 µM (inactive),> 100 µM (inactive),> 100 µM (inactive),–,–
Clc1ccc(C2Nc3ccccc3C3=NCCN32)cc1 (stereo not drawn),18.5 µM (inactive),16.6 µM (inactive),25.9 µM (inactive),15.9 µM (inactive),33.3 µM (inactive),8.18 µM (inactive),39.8 µM (inactive),19.5 µM (inactive),23.4 µM (inactive),–,17.2 µM (inactive),27.9 µM (inactive),11.4 µM (inactive),15.1 µM (inactive),–,32.3 µM (inactive),17.4 µM (inactive),15.4 µM (inactive),–
COc1cccc2c1OC(c1cccc3ccccc13)C([N+](=O)[O-])=C2 (stereo not drawn),1.87 µM (inactive),1.51 µM (inactive),1.56 µM (inactive),3.45 µM (inactive),2.48 µM (inactive),–,2.65 µM (inactive),1.84 µM (inactive),2.1 µM (inactive),1.32 µM (inactive),1.04 µM (active),1.53 µM (inactive),1.92 µM (inactive),1.31 µM (inactive),2 µM (inactive),1.95 µM (inactive),1.93 µM (inactive),1.75 µM (inactive),1.33 µM (inactive)
N#Cc1c(-c2ccccc2)c(C#N)c(=S)n(C2OC(CO)C(O)C(O)C2O)c1O (stereo not drawn),> 100 µM (inactive),> 100 µM (inactive),–,> 100 µM (inactive),> 100 µM (inactive),–,> 100 µM (inactive),> 100 µM (inactive),> 100 µM (inactive),> 100 µM (inactive),> 100 µM (inactive),> 100 µM (inactive),> 100 µM (inactive),> 100 µM (inactive),> 100 µM (inactive),> 100 µM (inactive),> 100 µM (inactive),> 100 µM (inactive),> 100 µM (inactive)
CCn1cc2c(=O)n3ncn(-c4ccc(Br)cc4)c3nc2n1,63.2 µM (inactive),> 100 µM (inactive),58.1 µM (inactive),40.3 µM (inactive),29.9 µM (inactive),–,> 100 µM (inactive),> 100 µM (inactive),38.5 µM (inactive),21 µM (inactive),–,49.9 µM (inactive),> 100 µM (inactive),> 100 µM (inactive),> 100 µM (inactive),> 100 µM (inactive),> 100 µM (inactive),> 100 µM (inactive),> 100 µM (inactive)
BrC(=C(c1ccc(OC2CCCCO2)cc1)c1ccc(OC2CCCCO2)cc1)c1ccccc1 (stereo not drawn),> 100 µM (inactive),> 100 µM (inactive),> 100 µM (inactive),> 100 µM (inactive),> 100 µM (inactive),> 100 µM (inactive),> 100 µM (inactive),> 100 µM (inactive),> 100 µM (inactive),> 100 µM (inactive),> 100 µM (inactive),> 100 µM (inactive),> 100 µM (inactive),> 100 µM (inactive),> 100 µM (inactive),> 100 µM (inactive),> 100 µM (inactive),> 100 µM (inactive),–
CN(C)CS/C(N)=N\C(O)C(Cl)(Cl)Cl (stereo not drawn),> 100 µM (inactive),> 100 µM (inactive),> 100 µM (inactive),–,> 100 µM (inactive),> 100 µM (inactive),> 100 µM (inactive),> 100 µM (inactive),> 100 µM (inactive),> 100 µM (inactive),> 100 µM (inactive),> 100 µM (inactive),> 100 µM (inactive),> 100 µM (inactive),> 100 µM (inactive),> 100 µM (inactive),> 100 µM (inactive),> 100 µM (inactive),> 100 µM (inactive)
COc1cccc2cc(C(N)=O)c(=N)oc12,31.7 µM (inactive),42.3 µM (inactive),81.5 µM (inactive),90.2 µM (inactive),31.5 µM (inactive),81.8 µM (inactive),92.5 µM (inactive),48.4 µM (inactive),–,63.2 µM (inactive),30.7 µM (inactive),82 µM (inactive),48.4 µM (inactive),46.6 µM (inactive),96.2 µM (inactive),50.5 µM (inactive),59.7 µM (inactive),19.2 µM (inactive),–
CC1(C)C2CC(c3ccncc3)ON2C(C)(C)N1O (stereo not drawn),> 100 µM (inactive),> 100 µM (inactive),> 100 µM (inactive),> 100 µM (inactive),> 100 µM (inactive),> 100 µM (inactive),> 100 µM (inactive),> 100 µM (inactive),> 100 µM (inactive),> 100 µM (inactive),> 100 µM (inactive),> 100 µM (inactive),> 100 µM (inactive),> 100 µM (inactive),> 100 µM (inactive),> 100 µM (inactive),> 100 µM (inactive),> 100 µM (inactive),–
[O-][n+]1onc2c1CCC(=N\O)/C2=N/Nc1ccccc1,> 100 µM (inactive),> 100 µM (inactive),–,> 100 µM (inactive),> 100 µM (inactive),–,> 100 µM (inactive),> 100 µM (inactive),> 100 µM (inactive),> 100 µM (inactive),> 100 µM (inactive),> 100 µM (inactive),> 100 µM (inactive),> 100 µM (inactive),> 100 µM (inactive),> 100 µM (inactive),> 100 µM (inactive),> 100 µM (inactive),> 100 µM (inactive)
CCC(C)c1c(Cl)nc(Cl)nc1Cl (stereo not drawn),10.9 µM (inactive),2.77 µM (inactive),4.16 µM (inactive),11 µM (inactive),21.6 µM (inactive),–,16.3 µM (inactive),2.64 µM (inactive),4.72 µM (inactive),13.8 µM (inactive),0.44 µM (active),16 µM (inactive),6.01 µM (inactive),1.44 µM (inactive),2.86 µM (inactive),> 10 µM (inactive),6.44 µM (inactive),5.75 µM (inactive),0.582 µM (active)
CO[C@H]1O[C@@H]2CO[C@@H](c3ccccc3)O[C@H]2C[C@]12CCC/C=C\CO2,14.2 µM (inactive),12.2 µM (inactive),12.6 µM (inactive),–,16.4 µM (inactive),13.5 µM (inactive),33.5 µM (inactive),21.1 µM (inactive),16.9 µM (inactive),22.5 µM (inactive),12.6 µM (inactive),22.8 µM (inactive),17.7 µM (inactive),15.8 µM (inactive),18.3 µM (inactive),33.6 µM (inactive),14.1 µM (inactive),14.1 µM (inactive),11.5 µM (inactive)
COc1c2c(cc3occ(-c4ccc(CC=C(C)C)cc4)c(=O)c13)OC(C)(C)C=C2,84.1 µM (inactive),27 µM (inactive),33.7 µM (inactive),6.97 µM (inactive),85.1 µM (inactive),–,84.7 µM (inactive),25.8 µM (inactive),> 100 µM (inactive),60.1 µM (inactive),23.6 µM (inactive),61.1 µM (inactive),26.9 µM (inactive),34.3 µM (inactive),48.1 µM (inactive),30.1 µM (inactive),44.6 µM (inactive),60.5 µM (inactive),13.9 µM (inactive)
O=c1onc2n1-c1cc(Cl)ccc1C(=S)N1CSCC21 (stereo not drawn),> 100 µM (inactive),> 100 µM (inactive),> 100 µM (inactive),> 100 µM (inactive),> 100 µM (inactive),–,> 100 µM (inactive),–,> 100 µM (inactive),31.3 µM (inactive),> 100 µM (inactive),> 100 µM (inactive),> 100 µM (inactive),> 100 µM (inactive),> 100 µM (inactive),> 100 µM (inactive),> 100 µM (inactive),> 100 µM (inactive),> 100 µM (inactive)
Cc1ccc(Sc2ccccc2C23OC(C)(C4C(=O)N(c5ccccc5)C(=O)C42)N(C)C3=O)cc1 (stereo not drawn),96.6 µM (inactive),> 100 µM (inactive),> 100 µM (inactive),–,59.4 µM (inactive),42.8 µM (inactive),> 100 µM (inactive),> 100 µM (inactive),–,> 100 µM (inactive),> 100 µM (inactive),> 100 µM (inactive),> 100 µM (inactive),> 100 µM (inactive),> 100 µM (inactive),> 100 µM (inactive),> 100 µM (inactive),79.6 µM (inactive),> 100 µM (inactive)
O/N=N/c1ccc2ccccc2n1,> 100 µM (inactive),> 100 µM (inactive),> 100 µM (inactive),> 100 µM (inactive),> 100 µM (inactive),–,> 100 µM (inactive),> 100 µM (inactive),> 100 µM (inactive),75.5 µM (inactive),> 100 µM (inactive),> 100 µM (inactive),> 100 µM (inactive),> 100 µM (inactive),> 100 µM (inactive),> 100 µM (inactive),> 100 µM (inactive),–,> 100 µM (inactive)
